Ki data for 69 compounds are collected here from patent publication US8232406B2, “c-MET protein kinase inhibitors” (Vertex Pharmaceuticals Incorporated, priority 2006, dated 2012).

The structures appear in SMILES notation. Bounds are passed on as bounds.

c-MET, sequence (P08581 25-1390): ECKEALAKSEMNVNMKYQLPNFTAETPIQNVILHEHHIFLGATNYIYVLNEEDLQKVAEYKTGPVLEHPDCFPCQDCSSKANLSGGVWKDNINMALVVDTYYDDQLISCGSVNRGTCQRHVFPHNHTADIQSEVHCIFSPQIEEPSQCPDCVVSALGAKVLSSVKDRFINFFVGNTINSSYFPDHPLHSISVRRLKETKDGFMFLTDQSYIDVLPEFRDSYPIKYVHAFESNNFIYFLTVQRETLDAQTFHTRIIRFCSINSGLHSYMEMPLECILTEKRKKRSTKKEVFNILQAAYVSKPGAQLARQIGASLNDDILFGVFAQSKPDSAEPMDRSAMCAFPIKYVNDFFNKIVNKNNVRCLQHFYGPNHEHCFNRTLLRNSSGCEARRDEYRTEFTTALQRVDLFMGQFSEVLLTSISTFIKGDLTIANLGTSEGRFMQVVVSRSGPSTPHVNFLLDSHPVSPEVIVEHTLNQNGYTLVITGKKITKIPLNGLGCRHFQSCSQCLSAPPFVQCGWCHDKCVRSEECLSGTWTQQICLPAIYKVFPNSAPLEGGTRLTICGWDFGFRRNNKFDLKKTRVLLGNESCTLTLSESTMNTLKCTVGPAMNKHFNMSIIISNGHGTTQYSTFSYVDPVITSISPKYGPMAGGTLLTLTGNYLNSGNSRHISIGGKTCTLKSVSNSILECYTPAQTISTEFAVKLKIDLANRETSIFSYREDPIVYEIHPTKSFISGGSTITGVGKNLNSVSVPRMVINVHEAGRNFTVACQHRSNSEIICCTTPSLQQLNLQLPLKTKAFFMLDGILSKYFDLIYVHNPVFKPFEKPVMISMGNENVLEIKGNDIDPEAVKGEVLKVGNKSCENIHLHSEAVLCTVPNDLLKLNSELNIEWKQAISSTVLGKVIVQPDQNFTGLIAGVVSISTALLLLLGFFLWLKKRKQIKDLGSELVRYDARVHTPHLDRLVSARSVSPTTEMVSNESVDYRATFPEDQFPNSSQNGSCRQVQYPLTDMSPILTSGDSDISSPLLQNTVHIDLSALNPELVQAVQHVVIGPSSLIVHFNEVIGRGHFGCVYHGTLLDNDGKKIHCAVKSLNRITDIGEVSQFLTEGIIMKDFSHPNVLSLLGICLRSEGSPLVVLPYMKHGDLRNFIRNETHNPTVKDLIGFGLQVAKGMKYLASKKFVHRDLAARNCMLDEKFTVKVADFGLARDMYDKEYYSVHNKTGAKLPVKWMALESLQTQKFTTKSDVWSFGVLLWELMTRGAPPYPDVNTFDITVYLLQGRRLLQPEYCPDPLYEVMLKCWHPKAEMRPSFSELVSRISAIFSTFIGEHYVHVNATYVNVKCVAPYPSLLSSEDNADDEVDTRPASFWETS

This experiment concerns the target c-MET (Homo sapiens, UniProt P08581). Description: Ki determination for the inhibition of c-MET (standard radiometric 33P-ATP kinase assay, polyE4Y substrate). In kind it is biochemical. The settings on record: 1.0 nM c-Met, 35 μM ATP, 0.5 mg/mL polyE4Y, 20 min; competitive tight-binding fit. The method, then:
Ki Determination for the Inhibition of c-MET
Compounds of the invention were screened for their ability to inhibit c-MET kinase activity using a standard radiometric assay. Briefly, in this kinase assay the transfer of the terminal ^33P-phosphate in ^33P-ATP to substrate polyE4Y is interrogated. The assay was carried out in 96-well plates to a final volume of 100 μL per well containing 1.0 nM c-Met, 100 mM HEPES (pH 7.5), 10 mM MgCl2, 25 mM NaCl, 0.01% BSA, 1 mM DTT, 0.5 mg/mL polyE4Y, and 35 μM ATP. Accordingly, compounds of the invention were dissolved in DMSO to make 10 mM initial stock solutions. Serial dilutions in DMSO were then made to obtain the final solutions for the assay. A 1.5 μL aliquot of DMSO or inhibitor in DMSO was added to each well. The reaction was initiated by the addition of ^33P-ATP and polyE4Y (obtained from Sigma). After 20 min, the reaction was quenched with 50 μL of 30% trichloroacetic acid (TCA) containing 4 mM ATP. The reaction mixture was transferred to the 0.66 mm GF filter plates (Corning) and washed three times with 5% TCA. Following the addition of 50 μL of Ultimate Gold™ high efficiency scintillant (Packard Bioscience), the samples were counted in a Packard TopCount NXT Microplate Scintillation and Luminescence Counter (Packard BioScience). The Ki values were calculated using Microsoft Excel Solver macros to fit the data to the kinetic model for competitive tight-binding inhibition.
As a reminder, the Ki is the dissociation constant of the complex between target and ligand, obtained from inhibition or displacement. For the compound `Nc1ncc(-c2ccc(CN3CC4CC3CO4)cc2)cc1-c1nnnn1-c1cccc(F)c1F` (stereo not drawn) [I-A-265], the Ki was at most 100 nM.

`Nc1ncc(-c2cccc(NC(=O)C3CC3)c2)cc1-c1nnnn1-c1cccc(F)c1F` [I-A-261] showed a Ki of at most 100 nM.

In the case of `CC(C)c1cccc(-c2cnc(N)c(-c3nnnn3-c3cccc(F)c3F)c2)c1` [I-A-236], the Ki fell in the range of 100 to 1000 nM.

Turning to `CC(=O)Nc1ccc(-c2cnc(N)c(-c3nncn3-c3cccc(Cl)c3Cl)c2)cc1` [I-A-76], the Ki lay within 100 to 1000 nM.

Consider `Nc1nc2ccc(-c3cnc(N)c(-c4nnnn4-c4cccc(F)c4F)c3)cc2s1` [I-A-308], for which the Ki is at most 100 nM.

The compound `Nc1ncc(-c2ccc(CO)cc2)cc1-c1nnnn1-c1cccc(F)c1F` [I-A-232] yielded a Ki of at most 100 nM.

`Nc1ncc(-c2ccoc2)cc1-c1nnnn1-c1cccc(F)c1F` [I-A-497] gave a Ki of at most 100 nM.

`CC(C)(C)NC(=O)Nc1ccc(-c2cnc(N)c(-c3nnnn3-c3cccc(F)c3F)c2)cc1` [I-A-332] displayed a Ki of at most 100 nM.

In turn, `Nc1ncc(-c2cnn(CC3COCO3)c2)cc1-c1nnnn1-c1cccc(F)c1F` (stereo not drawn) [I-A-433] gave a Ki of at most 100 nM.

The compound `Nc1ncc(-c2ccc(-n3ccnc3)nc2)cc1-c1nnnn1-c1cccc(F)c1F` [I-A-128] returned a Ki of at most 100 nM.

For the compound `CN1CCN(c2ccc(-c3cnc(N)c(-c4nncn4-c4cccc(F)c4F)n3)cc2)CC1` [I-A-7], the Ki was at most 100 nM.

As for `Nc1ncc(-c2cc3c(s2)CCNCC3)cc1-c1nnnn1-c1cccc(Cl)c1Cl` [I-A-431], the Ki is at most 100 nM.

Compound `CC(=O)Nc1cccc(-c2cnc(N)c(-c3nnnn3-c3cccc(Cl)c3F)c2)c1` [I-A-344] had a Ki of at most 100 nM.

As to `Nc1ncc(-c2cnn(C3CCNCC3)c2)cc1-c1nnnn1-c1cc(F)cc(F)c1Cl` [I-A-634], the Ki lay within 100 to 1000 nM.

`CC1CN(Cc2ccc(-c3cnc(N)c(-c4nnnn4-c4cccc(Cl)c4Cl)c3)cc2)CCN1` (stereo not drawn) [I-A-106] displayed a Ki of at most 100 nM.

`CC(=O)N1CCC(n2cc(-c3cnc(N)c(-c4nnnn4-c4cccc(Cl)c4F)c3)cn2)CC1` [I-A-399] had a Ki of at most 100 nM.

In turn, `Nc1ncc(-c2ccc(CN3CCCC3)cc2)cc1-c1nnnn1-c1c(F)cccc1Cl` [I-A-616] returned a Ki of at most 100 nM.

In turn, `CC(=O)Nc1cccc(-c2cnc(N)c(-c3nnnn3-c3cccc(F)c3F)c2)c1` [I-A-139] showed a Ki of at most 100 nM.

Compound `CN1CCN(c2ccc(-c3cnc(N)c(-c4nnnn4-c4cccc(F)c4F)n3)cc2)CC1` [I-A-46] returned a Ki of at most 100 nM.

In the case of `NCc1ccc(-c2cnc(N)c(-c3nnnn3-c3cccc(F)c3F)c2)cc1` [I-A-202], the Ki is at most 100 nM.

`CN1CCN(c2ccc(-c3cnc(N)c(-c4nc5cc(F)ccc5n4-c4cccc(Cl)c4F)c3)cc2)CC1` [I-D-21] showed a Ki of 100 to 1000 nM.

Compound `CC(=O)Nc1cccc(-c2cnc(N)c(-c3nc4cnccc4n3-c3cccc(F)c3F)c2)c1` [I-D-12] displayed a Ki of at most 100 nM.

As to `Nc1ncc(-c2cnn(Cc3ccccc3)c2)cc1-c1nnnn1-c1cccc(F)c1F` [I-A-349], the Ki was at most 100 nM.

`CN(C)Cc1ccc(-c2cnc(N)c(-c3nnnn3-c3c(F)ccc(F)c3Cl)c2)cc1` [I-A-630]: the Ki is at most 100 nM.

`Nc1ncc(C2=CCN(C(=O)O[C@H]3CCOC3)CC2)cc1-c1nnnn1-c1cccc(F)c1F` [I-A-526] had a Ki of at most 100 nM.

In turn, `Nc1ncc(-c2ccc(CN3CCCC(CO)C3)cc2)cc1-c1nnnn1-c1cccc(Cl)c1Cl` (stereo not drawn) [I-A-99] came in with a Ki of at most 100 nM.

With `CC(=O)Nc1cccc(-c2cnc(N)c(-n3nnnc3-c3cccc(F)c3F)c2)c1` [I-E-5], the Ki was 100 to 1000 nM.

`Nc1ncc(-c2ccccc2)cc1-c1nnnn1-c1cccc(F)c1F` [I-A-233] displayed a Ki of at most 100 nM.

Consider `COc1cc(-c2cnc(N)c(-c3nnnn3-c3cccc(F)c3F)c2)ccc1O` [I-A-299], for which the Ki was at most 100 nM.

With `COCCN1CCC(n2cc(-c3cnc(N)c(-c4nncn4-c4cccc(F)c4F)c3)cn2)CC1` [I-A-476], the Ki is at most 100 nM.

The compound `NCc1cccc(-c2cnc(N)c(-c3nnnn3-c3cccc(Cl)c3Cl)c2)c1` [I-A-87] showed a Ki of at most 100 nM.

In the case of `CC(=O)N1CC=C(c2cnc(N)c(-c3nnnn3-c3cccc(F)c3F)c2)CC1` [I-A-510], the Ki is at most 100 nM.

As to `COc1c(F)cccc1-n1nnnc1-c1cc(-c2ccc(CN3CCCC3)cc2)cnc1N` [I-A-604], the Ki lay in the range of 100 to 1000 nM.

The compound `CN(C)Cc1ccc(-c2cnc(N)c(-c3nc4cnccc4n3-c3cccc(F)c3F)c2)cc1` [I-D-4] displayed a Ki of at most 100 nM.

In turn, `CCN1CCC[C@@H](n2cc(-c3cnc(N)c(-c4nnnn4-c4cccc(Cl)c4Cl)c3)cn2)C1` [I-A-499] displayed a Ki of at most 100 nM.

`CCCS(=O)(=O)N1CCC(n2cc(-c3cnc(N)c(-c4nnnn4-c4cccc(Cl)c4F)c3)cn2)CC1` [I-A-446] showed a Ki of at most 100 nM.

`Nc1ncc(-c2ccc(CN3CCCC3)c(O)c2)cc1-c1nnnn1-c1cccc(F)c1F` [I-A-391] yielded a Ki of at most 100 nM.

Turning to `Nc1ncc(-c2cnn(C3CCNCC3)c2)cc1-c1nncn1-c1cccc(Cl)c1F` [I-A-438], the Ki is at most 100 nM.

Regarding `CCN(CC)Cc1ccc(-c2cnc(N)c(-c3nnnn3-c3cccc(F)c3F)c2)cc1` [I-A-66], the Ki was at most 100 nM.

As for `CN(C)Cc1ccc(-c2cnc(N)c(-c3nn(C4CCCCC4)cc3-c3cccc(Cl)c3Cl)c2)cc1` [I-B-11], the Ki was in the range of 100 to 1000 nM.

`Cc1c(Cl)cccc1-n1nnnc1-c1cc(-c2ccc(CN3CCCC3)cc2)cnc1N` [I-A-599] yielded an inhibition constant Ki of at most 100 nM.

For `Nc1ncc(-c2cccc(F)c2)cc1-c1nnnn1-c1cccc(F)c1F` [I-A-314], the Ki is at most 100 nM.

For `Nc1ncc(-c2cnn(C3CCCNCC3)c2)cc1-c1nnnn1-c1cccc(Cl)c1F` (stereo not drawn) [I-A-651], the Ki is at most 100 nM.

For the compound `Nc1ncc(-c2ccnc(F)c2)cc1-c1nnnn1-c1cccc(F)c1F` [I-A-319], the inhibitory constant (Ki) fell in the range of 100 to 1000 nM.

Compound `CN(C)CCn1cc(-c2cnc(N)c(-c3nc4cnccc4n3-c3cccc(F)c3F)c2)cn1` [I-D-9] displayed a Ki of at most 100 nM.

Turning to `CC(C)N1CCC(n2cc(-c3cnc(N)c(-c4nncn4-c4cccc(Cl)c4F)c3)cn2)CC1` [I-A-471], the Ki was at most 100 nM.

Compound `CC(=O)Nc1cccc(-c2cnc(N)c(-c3nnnn3-c3c(F)ccc(F)c3N)c2)c1` [I-A-383] yielded an inhibitory constant (Ki) of 100 to 1000 nM.

As for `Nc1ccc(-c2cnc(N)c(-c3nncn3-c3cccc(F)c3F)n2)cc1` [I-A-10], the Ki is at most 100 nM.

`Nc1ncc(-c2ccc(CN3CCCC3)cc2)cc1-c1nnnn1-c1c(Cl)cccc1Cl` [I-A-622] displayed a Ki of at most 100 nM.

As for `CC(C)(O)c1ccc(-c2cnc(N)c(-c3nnnn3-c3cccc(F)c3F)c2)cc1` [I-A-268], the inhibition constant (Ki) is at most 100 nM.

`CCNC(=O)Nc1nc2cc(-c3cnc(N)c(-c4nnnn4-c4cccc(F)c4F)c3)c(F)cc2[nH]1` [I-A-140] yielded a Ki of 100 to 1000 nM.

With `Nc1ncc(-c2ccncc2)cc1-c1nncn1-c1cccc(Cl)c1Cl` [I-A-71], the Ki was 100 to 1000 nM.

Turning to `Nc1ncc(-c2ccc(F)nc2)cc1-c1nnnn1-c1cccc(F)c1F` [I-A-318], the Ki lay in the range of 100 to 1000 nM.

In turn, `Nc1ncc(-c2cnn([C@@H]3CCCNC3)c2)nc1-c1nnnn1-c1cccc(F)c1F` [I-A-659] registered a Ki of at most 100 nM.

The compound `C[C@@H](C(=O)N1CC=C(c2cnc(N)c(-c3nnnn3-c3cccc(F)c3F)c2)CC1)N1CCCC1=O` [I-A-517] had a Ki of 100 to 1000 nM.

`CC1CCC(C)N1Cc1ccc(-c2cnc(N)c(-c3nnnn3-c3cccc(F)c3F)c2)cc1` (stereo not drawn) [I-A-210] had a Ki of at most 100 nM.

As for `Nc1ncc(C2=CCN(C(=O)[C@H]3CCC(=O)N3)CC2)cc1-c1nnnn1-c1cccc(F)c1F` [I-A-657], the Ki was at most 100 nM.

Take `CN1C[C@@H]2C[C@H]1CN2c1ccc(-c2cnc(N)c(-c3nncn3-c3cccc(F)c3F)n2)cc1` [I-A-9]: the Ki is at most 100 nM.

As for `Nc1ncc(-c2cc(F)c(N)c(F)c2)cc1-c1nnnn1-c1cccc(F)c1F` [I-A-303], the Ki was at most 100 nM.

Take `CCCN1CCC(n2cc(-c3cnc(N)c(-c4nnnn4-c4cccc(F)c4F)c3)nn2)CC1` [I-A-482]: the Ki is at most 100 nM.

Take `Cn1cnc(-c2cnc(N)c(-c3nnnn3-c3cccc(F)c3F)c2)c1` [I-A-495]: the Ki fell in the range of 100 to 1000 nM.

`Nc1ncc(-c2ccc3c(c2)OC(F)(F)O3)cc1-c1nnnn1-c1cccc(F)c1F` [I-A-285] displayed a Ki of 100 to 1000 nM.

The compound `CN1CCN(c2ccc(-c3cnc(N)c(-c4nc5cccnc5n4-c4cccc(Cl)c4F)c3)cc2)CC1` [I-D-17] had a Ki of 100 to 1000 nM.

Compound `CN(C)Cc1ccc(-c2cnc(N)c(-c3nnnn3-c3cc(F)ccc3Cl)c2)cc1` [I-A-592] came in with a Ki of 100 to 1000 nM.

`Cc1c(Cl)cccc1-n1nnnc1-c1cc(-c2cnn(C3CCNCC3)c2)cnc1N` [I-A-624] had a Ki of at most 100 nM.

Consider `Nc1ncc(-c2cnn(C3CCN(CCO)CC3)c2)cc1-c1nnnn1-c1cccc(Cl)c1F` [I-A-469], for which the Ki is at most 100 nM.

Compound `CN(C)CCNC(=O)c1ccc(-c2cnc(N)c(-c3nnnn3-c3cccc(F)c3F)c2)cc1` [I-A-135] had a Ki of at most 100 nM.

`CCNC(=O)Nc1ccc(-c2cnc(N)c(-c3nnnn3-c3cccc(F)c3F)c2)cc1` [I-A-281] gave a Ki of at most 100 nM.

Turning to `Nc1ncc(-c2cc3c(s2)CNCC3)nc1-c1nnnn1-c1cccc(Cl)c1F` [I-A-542], the Ki is at most 100 nM.
